#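 Cells were grown in 96-well plates and exposed to each compound for 48 hours at five concentrations; endpoints were interpolated linearly between bracketing concentrations, or set to the highest concentration if not reached. GI50 = concentration required for 50% inhibition of growth. TGI: total growth inhibition.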
# Assays:
# Assay in all cases: NCI tumour cell line growth inhibition, 48 h
# 786-0 renal = tested on: 786-0 renal
# A498 renal = tested on: A498 renal
# A549 NSCLC = tested on: A549 NSCLC
# ACHN renal = tested on: ACHN renal
# BT-549 breast = tested on: BT-549 breast
# CAKI-1 renal = tested on: CAKI-1 renal
# CCRF-CEM leukemia = tested on: CCRF-CEM leukemia
# COLO 205 colon = tested on: COLO 205 colon
# DU-145 prostate = tested on: DU-145 prostate
# EKVX NSCLC = tested on: EKVX NSCLC
# HCC-2998 colon = tested on: HCC-2998 colon
# HCT-116 colon = tested on: HCT-116 colon
# HCT-15 colon = tested on: HCT-15 colon
# HL-60(TB) leukemia = tested on: HL-60(TB) leukemia
# HOP-62 NSCLC = tested on: HOP-62 NSCLC
# HOP-92 NSCLC = tested on: HOP-92 NSCLC
# HS 578T breast = tested on: HS 578T breast
# HT29 colon = tested on: HT29 colon
# IGROV1 ovarian = tested on: IGROV1 ovarian
# K-562 leukemia = tested on: K-562 leukemia
# KM12 colon = tested on: KM12 colon
# LOX IMVI melanoma = tested on: LOX IMVI melanoma
# M14 melanoma = tested on: M14 melanoma
# MALME-3M melanoma = tested on: MALME-3M melanoma
# MCF7 breast = tested on: MCF7 breast
# MDA-MB-231 breast = tested on: MDA-MB-231 breast
# MDA-MB-435 = tested on: MDA-MB-435
# MOLT-4 leukemia = tested on: MOLT-4 leukemia
# NCI-H226 lung = tested on: NCI-H226 lung
# NCI-H23 lung = tested on: NCI-H23 lung
# NCI-H460 lung = tested on: NCI-H460 lung
# NCI-H522 lung = tested on: NCI-H522 lung
# NCI/ADR-RES ovarian = tested on: NCI/ADR-RES ovarian
# OVCAR-4 ovarian = tested on: OVCAR-4 ovarian
# OVCAR-5 ovarian = tested on: OVCAR-5 ovarian
# OVCAR-8 ovarian = tested on: OVCAR-8 ovarian
# PC-3 prostate = tested on: PC-3 prostate
# RPMI-8226 leukemia = tested on: RPMI-8226 leukemia
# RXF 393 renal = tested on: RXF 393 renal
# SF-268 CNS = tested on: SF-268 CNS
# SF-295 CNS = tested on: SF-295 CNS
# SF-539 CNS = tested on: SF-539 CNS
# SK-MEL-2 melanoma = tested on: SK-MEL-2 melanoma
# SK-MEL-28 melanoma = tested on: SK-MEL-28 melanoma
# SK-MEL-5 melanoma = tested on: SK-MEL-5 melanoma
# SK-OV-3 ovarian = tested on: SK-OV-3 ovarian
# SN12C renal = tested on: SN12C renal
# SNB-19 CNS = tested on: SNB-19 CNS
# SNB-75 CNS = tested on: SNB-75 CNS
# SR leukemia = tested on: SR leukemia
# SW-620 colon = tested on: SW-620 colon
# T-47D breast = tested on: T-47D breast
# TK-10 renal = tested on: TK-10 renal
# U251 CNS = tested on: U251 CNS
# UACC-257 melanoma = tested on: UACC-257 melanoma
# UACC-62 melanoma = tested on: UACC-62 melanoma
# UO-31 renal = tested on: UO-31 renal
smiles,measurement,setting,value
O=C(NNc1nc2cc(F)c(F)cc2n2c(CN3CC4CNCC4C3)ccc12)c1cnccn1 (centres undefined),GI50,786-0 renal,0.609 µM
same,TGI,786-0 renal,12.4 µM
same,GI50,A498 renal,0.522 µM
same,TGI,A498 renal,4.22 µM
same,GI50,A549 NSCLC,0.851 µM
same,TGI,A549 NSCLC,10.6 µM
same,GI50,ACHN renal,0.429 µM
same,TGI,ACHN renal,7.82 µM
same,GI50,BT-549 breast,2.42 µM
same,TGI,BT-549 breast,13.8 µM
same,GI50,CAKI-1 renal,0.415 µM
same,TGI,CAKI-1 renal,9.69 µM
same,GI50,CCRF-CEM leukemia,0.706 µM
same,TGI,CCRF-CEM leukemia,27.5 µM
same,GI50,COLO 205 colon,0.874 µM
same,TGI,COLO 205 colon,13.8 µM
same,GI50,DU-145 prostate,1.3 µM
same,TGI,DU-145 prostate,11.8 µM
same,GI50,EKVX NSCLC,0.732 µM
same,TGI,EKVX NSCLC,13.8 µM
same,GI50,HCC-2998 colon,2.74 µM
same,TGI,HCC-2998 colon,16.5 µM
same,GI50,HCT-116 colon,0.588 µM
same,TGI,HCT-116 colon,15.8 µM
same,GI50,HCT-15 colon,0.363 µM
same,TGI,HCT-15 colon,16.2 µM
same,GI50,HL-60(TB) leukemia,1.15 µM
same,TGI,HL-60(TB) leukemia,4.36 µM
same,GI50,HOP-62 NSCLC,0.459 µM
same,TGI,HOP-62 NSCLC,5.23 µM
same,GI50,HOP-92 NSCLC,3.01 µM
same,TGI,HOP-92 NSCLC,17.4 µM
same,GI50,HS 578T breast,3.33 µM
same,TGI,HS 578T breast,20.6 µM
same,GI50,HT29 colon,0.726 µM
same,TGI,HT29 colon,15.2 µM
same,GI50,IGROV1 ovarian,0.904 µM
same,TGI,IGROV1 ovarian,10.8 µM
same,GI50,K-562 leukemia,0.785 µM
same,TGI,K-562 leukemia,> 100 µM
same,GI50,KM12 colon,0.74 µM
same,TGI,KM12 colon,12.7 µM
same,GI50,LOX IMVI melanoma,0.608 µM
same,TGI,LOX IMVI melanoma,6.7 µM
same,GI50,M14 melanoma,0.611 µM
same,TGI,M14 melanoma,12.3 µM
same,GI50,MALME-3M melanoma,1.75 µM
same,TGI,MALME-3M melanoma,9.7 µM
same,GI50,MCF7 breast,1.41 µM
same,TGI,MCF7 breast,12.3 µM
same,GI50,MDA-MB-231 breast,3.65 µM
same,TGI,MDA-MB-231 breast,20.6 µM
same,GI50,MDA-MB-435,2.53 µM
same,TGI,MDA-MB-435,16.3 µM
same,GI50,MOLT-4 leukemia,0.764 µM
same,TGI,MOLT-4 leukemia,13.6 µM
same,GI50,NCI-H226 lung,1.23 µM
same,TGI,NCI-H226 lung,14.5 µM
same,GI50,NCI-H23 lung,2.47 µM
same,TGI,NCI-H23 lung,14.3 µM
same,GI50,NCI-H460 lung,0.463 µM
same,TGI,NCI-H460 lung,4.72 µM
same,GI50,NCI-H522 lung,2.34 µM
same,TGI,NCI-H522 lung,6.26 µM
same,GI50,NCI/ADR-RES ovarian,2.6 µM
same,TGI,NCI/ADR-RES ovarian,14.3 µM
same,GI50,OVCAR-4 ovarian,0.995 µM
same,TGI,OVCAR-4 ovarian,20.6 µM
same,GI50,OVCAR-5 ovarian,1.75 µM
same,TGI,OVCAR-5 ovarian,16.8 µM
same,GI50,OVCAR-8 ovarian,0.547 µM
same,TGI,OVCAR-8 ovarian,7.83 µM
same,GI50,PC-3 prostate,1.25 µM
same,TGI,PC-3 prostate,16.1 µM
same,GI50,RPMI-8226 leukemia,1.3 µM
same,TGI,RPMI-8226 leukemia,11.8 µM
same,GI50,RXF 393 renal,1.27 µM
same,TGI,RXF 393 renal,9.46 µM
same,GI50,SF-268 CNS,0.962 µM
same,TGI,SF-268 CNS,10.8 µM
same,GI50,SF-295 CNS,0.44 µM
same,TGI,SF-295 CNS,11.2 µM
same,GI50,SF-539 CNS,1.07 µM
same,TGI,SF-539 CNS,4.42 µM
same,GI50,SK-MEL-2 melanoma,1.89 µM
same,TGI,SK-MEL-2 melanoma,11.4 µM
same,GI50,SK-MEL-28 melanoma,2.11 µM
same,TGI,SK-MEL-28 melanoma,14.5 µM
same,GI50,SK-MEL-5 melanoma,1.65 µM
same,TGI,SK-MEL-5 melanoma,4.34 µM
same,GI50,SK-OV-3 ovarian,0.811 µM
same,TGI,SK-OV-3 ovarian,9.06 µM
same,GI50,SN12C renal,2.06 µM
same,TGI,SN12C renal,11.4 µM
same,GI50,SNB-19 CNS,2.2 µM
same,TGI,SNB-19 CNS,18.8 µM
same,GI50,SNB-75 CNS,2.16 µM
same,TGI,SNB-75 CNS,14.1 µM
same,GI50,SR leukemia,0.481 µM
same,TGI,SR leukemia,20.5 µM
same,GI50,SW-620 colon,1.17 µM
same,TGI,SW-620 colon,15.2 µM
same,GI50,T-47D breast,3.3 µM
same,TGI,T-47D breast,22.9 µM
same,GI50,TK-10 renal,0.455 µM
same,TGI,TK-10 renal,17 µM
same,GI50,U251 CNS,0.741 µM
same,TGI,U251 CNS,11.2 µM
same,GI50,UACC-257 melanoma,2.09 µM
same,TGI,UACC-257 melanoma,7.13 µM
same,GI50,UACC-62 melanoma,1.19 µM
same,TGI,UACC-62 melanoma,6.28 µM
same,GI50,UO-31 renal,0.356 µM
same,TGI,UO-31 renal,3.24 µM
